Experimental data reported in patent publication US20090306373A1, “4,7-DIHYDROTHIENO[2,3-B]PYRIDINE COMPOUNDS AND PHARMACEUTICAL COMPOSITIONS” (priority 2005, published 2009).

System: alpha-MyHC
Assay: alpha-MyHC cytoblot in neonatal rat ventricular myocytes (NRVM)
Type: cell-based
Conditions: for EC50: concentration giving 50% of maximum response; for Max Plateau: fitted maximum, percent fraction of low control (vehicle), in %
Protocol: In vitro activity of each compound is measured using the alpha-MyHC cytoblot process. Briefly, neonatal rat ventricular myocytes (NRVM) at 120,000 cells/ml in HyQ DME/High modified culture media supplemented with 10% charcoal/dextran treated FBS, 0.1% Nutridoma-SP, 1:100 MEM non-essential amino acids, 1:50 MEM amino acids solution w/o L-Gln, 1 mM sodium pyruvate and 1:100 P/S/G, are plated on gelatin coated sterile 384-well plates (Costar 3712) at 6,000 cells per well. Cells are incubated overnight at 37° C. in 5% CO2 100% humidity. Following overnight growth the media is changed to HyQ DME/High modified culture media supplemented with 0.3% Nutridoma-SP, 1:100 MEM non-essential amino acids, 1:50 MEM amino acids solution w/o L-Gln, 1 mM sodium pyruvate and 1:100 P/S/G. Cells are then dosed with serial dilutions of each compound in DMSO. Each concentration in the dose range is dosed in quadruplicate. Dosing is done in such a way so that the final DMSO concentration was 0.44%. Compound dilutions are 3-fold with the final top concentration of 10 uM. […] Following dosing, the cells are incubated for 72 hours at 37° C. in 5% CO2 100% humidity and then processed with the cytoblot method. Briefly, cell media is aspirated and cell monolayers washed with PBS and fixed with 100% methanol for 30 minutes. Fixed cells are then blocked with PBS, 0.05% Tween-20, 1% BSA, for 1 hour. Following blocking, cells are incubated with primary alpha-MyHC-specific antibody (1:30 dilution of BA-G5 hybridoma conditioned media, ATCC HB276) for 1 hour. Following incubation with the primary antibody, cells are washed with PBS, 0.05% Tween-20, 1% BSA and incubated with secondary antibody (1:1000 dilution, goat-anti-mouse HRP, Southern Biotech, 1031-05) for 1 hour. Following incubation with the secondary antibody, wells are washed and incubated in SuperSignal, West Dura HRP-luminescence substrate for 30 seconds under shaking at room temperature. Luminescence is measured using a Packard Fusion plate reader. […] RLU values are converted into percent fraction of low control and dose responses are fitted to a sigmoidal 4-parameter equation (XLFit, IDBS) where the EC50 and Max Plateau values were extracted. […] Max Plateau is the […] maximum value determined by the dose response fit.

SMILES | Max Plateau (Table 1, 72 hours) | other results
CCC(=O)C1=C(CC)Nc2sc(C(=O)c3ccc(Cl)c(Cl)c3)c(N)c2C1c1ccccc1F (racemic) [Compound 39, 1-[3-amino-2-(3,4-dichloro-benzoyl)-6-ethyl-4-(2-fluoro-phenyl)-4,7-dihydro-thieno[2,3b]pyridin-5-yl]-propan-1-one] | 272.61 ± 37.32 | EC50 (Table 1, 72 hours): 17.1 nM
CCC1=C(C(=O)OC)C(c2ccnc(F)c2)c2c(sc(C(=O)c3cccc(Cl)c3)c2N)N1 (racemic) [Compound 175] |  | Max Plateau (Table 2, 72 hours): 289.91
COC(=O)C1=C(C2CC2)Nc2sc(C(=O)c3cccc(Cl)c3)c(N)c2C1c1ccnc(F)c1 (racemic) [Compound 176] |  | Max Plateau (Table 2, 72 hours): 218.25
COC(=O)C1=C(C(C)C)Nc2sc(C(=O)c3cccc(C#N)c3)c(N)c2C1c1ccccc1F (racemic) [Compound 177] |  | Max Plateau (Table 2, 72 hours): 162.75
CCOC(=O)C1=C(CC)Nc2sc(C(=O)c3ccc(F)c(CC(=O)OC)c3)c(N)c2C1c1ccccc1 (racemic) [Compound 194] |  | Max Plateau (Table 2, 72 hours): 188.67
CCNC(=O)C1=C(C)Nc2sc(C(=O)c3ccc(Cl)c(Cl)c3)c(N)c2C1c1ccccc1 (racemic) [Compound 195] |  | Max Plateau (Table 3, 72 hours): 126.67 ± 23.09
CCCCNC(=O)C1=C(C)Nc2sc(C(=O)c3ccc(Cl)c(Cl)c3)c(N)c2C1c1ccccc1 (racemic) [Compound 196] |  | Max Plateau (Table 3, 72 hours): 121.93 ± 25.12
COCCOCN1C(C)=C(C(C)=O)C(c2ccccc2)c2c1sc(C(=O)c1ccccc1)c2N (racemic) [Compound 209] |  | Max Plateau (Table 5, 72 hours): 192.74
CCC1=C(C(=O)OC(C)CC)C(c2ccccc2F)c2c(sc(C(=O)c3ccc(Cl)c(Cl)c3)c2N)N1 (single isomer, unassigned) [Compound 162] |  | Max Plateau (Table 2, 72 hours): 183.22
CCC1=C(C(=O)OC(C)CC)C(c2ccccc2F)c2c(sc(C(=O)c3ccc(Cl)c(Cl)c3)c2N)N1 (single isomer, unassigned) [Compound 163] |  | Max Plateau (Table 2, 72 hours): 224.85
CCC1=C(C(=O)OC(C)CC)C(c2ccccc2F)c2c(sc(C(=O)c3cccc(C#N)c3)c2N)N1 (single isomer, unassigned) [Compound 166] |  | Max Plateau (Table 2, 72 hours): 219.07
CC(=O)C1=C(C)Nc2sc(C(=O)c3ccc(Cl)c(Cl)c3)c(N)c2C1c1ccccc1 (stereo not drawn) [Compound 2] | 207.74 ± 23.00 | 
CC(=O)C1=C(C)Nc2sc(C(=O)c3ccccc3)c(N)c2C1c1ccccc1 (stereo not drawn) [Compound 3] | 250.88 ± 32.62 | 
CC(=O)C1=C(C)Nc2sc(C(=O)c3cccc([N+](=O)[O-])c3)c(N)c2C1c1ccccc1Cl (stereo not drawn) [Compound 4, 1-[3-amino-4-(2-chloro-phenyl)-6-methyl-2-(3-nitro-benzoyl)-4,7-dihydro-thieno[2,3-b]pyridin-5-yl]-ethanone] |  | EC50 (Rattus norvegicus, Ventricular myocyte, Table 1, 72 hours): 85.7 nM
CC(=O)C1=C(C)Nc2sc(C(=O)c3cccnc3)c(N)c2C1c1ccccc1 (stereo not drawn) [Compound 5] | 286.43 ± 42.04 | 
CC(=O)C1=C(C)Nc2sc(C(=O)c3cccc(Br)c3)c(N)c2C1c1ccccc1 (stereo not drawn) [Compound 6] | 289.34 ± 70.69 | 
CC(=O)C1=C(C)Nc2sc(C(=O)c3ccc(C)c(C)c3)c(N)c2C1c1ccccc1 (stereo not drawn) [Compound 8] | 172.29 ± 9.66 | 
CC(=O)C1=C(C)Nc2sc(C(=O)c3cccc([N+](=O)[O-])c3)c(N)c2C1c1ccc(C(=O)O)cc1 (stereo not drawn) [Compound 9] | 100.00 ± 0.00 | 
CC(=O)C1=C(C)Nc2sc(C(=O)c3ccncc3)c(N)c2C1c1ccccc1 (stereo not drawn) [Compound 10] | 210.00 ± 36.06 | 
COc1ccc(C2C(C(C)=O)=C(C)Nc3sc(C(=O)c4ccccc4)c(N)c32)cc1 (stereo not drawn) [Compound 14] | 182.73 ± 26.95 | 
COc1cccc(C2C(C(C)=O)=C(C)Nc3sc(C(=O)c4ccccc4)c(N)c32)c1 (stereo not drawn) [Compound 15] | 126.50 ± 24.27 | 
CC(=O)C1=C(C)Nc2sc(C(=O)c3ccccn3)c(N)c2C1c1ccccc1 (stereo not drawn) [Compound 16] | 163.33 ± 32.15 | 
COc1ccccc1C1C(C(C)=O)=C(C)Nc2sc(C(=O)c3ccccc3)c(N)c21 (stereo not drawn) [Compound 18] | 215.25 ± 44.08 | 
CC(=O)C1=C(C)Nc2sc(C(=O)c3ccccc3)c(N)c2C1c1ccncc1 (stereo not drawn) [Compound 19] | 260.00 ± 36.06 | 
CC(=O)C1=C(C)Nc2sc(C(=O)c3ccccc3)c(N)c2C1c1cccnc1 (stereo not drawn) [Compound 20] | 127.35 ± 23.71 | 
CC(=O)C1=C(C)Nc2sc(C(=O)c3ccccc3)c(N)c2C1c1ccc(Cl)cc1 (stereo not drawn) [Compound 21] | 193.20 ± 49.26 | 
CC(=O)C1=C(C)Nc2sc(C(=O)c3ccc(Cl)c(Cl)c3)c(N)c2C1c1ccc(Br)cc1 (stereo not drawn) [Compound 22] | 174.35 ± 23.39 | 

SMILES | Max Plateau (Table 1, 72 hours) | other results
CC(=O)C1=C(C)Nc2sc(C(=O)c3ccc(Cl)c(Cl)c3)c(N)c2C1c1ccc(O)cc1 (stereo not drawn) [Compound 23] | 277.53 ± 33.46 | 
CC(=O)C1=C(C)Nc2sc(C(=O)c3ccccc3)c(N)c2C1c1ccccc1F (stereo not drawn) [Compound 24] | 260.35 ± 43.53 | 
CC(=O)C1=C(C)Nc2sc(C(=O)c3ccccc3)c(N)c2C1C1CCCCC1 (stereo not drawn) [Compound 26] | 185.33 ± 55.04 | 
CC(=O)C1=C(C)Nc2sc(C(=O)c3ccc(Cl)c(Cl)c3)c(N)c2C1c1ccccc1F (stereo not drawn) [Compound 27] | 220.13 ± 23.10 | 
CC(=O)C1=C(C)Nc2sc(C(=O)c3ccc(Cl)c(Cl)c3)c(N)c2C1c1ccc(O)cc1Cl (stereo not drawn) [Compound 29] | 281.88 ± 32.78 | 
Nc1c(C(=O)c2ccccc2)sc2c1C(c1ccccc1)C(C(=O)c1ccccc1)=C(c1ccccc1)N2 (stereo not drawn) [Compound 30] | 100.00 ± 0.00 | 
CC(=O)C1=C(C)Nc2sc(C(=O)c3ccc(Cl)c(Cl)c3)c(N)c2C1c1ccc(C(C)(C)C)cc1 (stereo not drawn) [Compound 32] | 100.00 ± 0.00 | 
CC(=O)C1=C(C)Nc2sc(C(=O)c3ccc(Cl)c(Cl)c3)c(N)c2C1c1cc(Cl)cc(Cl)c1 (stereo not drawn) [Compound 33] | 143.15 ± 21.22 | 
CC(=O)C1=C(C)Nc2sc(C(=O)c3ccc(Cl)c(Cl)c3)c(N)c2C1c1ccccc1O (stereo not drawn) [Compound 34] | 184.69 ± 15.76 | 
CCC(=O)C1=C(CC)Nc2sc(C(=O)c3ccc(Cl)c(Cl)c3)c(N)c2C1c1ccccc1 (stereo not drawn) [Compound 36] | 256.56 ± 24.93 | 
CC(=O)C1=C(C)Nc2sc(C(=O)c3ccccc3)c(N)c2C1c1ccc(F)cc1 (stereo not drawn) [Compound 37] | 227.92 ± 12.46 | 
CCC(=O)C1=C(CC)Nc2sc(C(=O)c3ccc(Cl)c(Cl)c3)c(N)c2C1c1ccccc1Cl (stereo not drawn) [Compound 38] | 288.93 ± 52.81 | 
CCC(=O)C1=C(CC)Nc2sc(C(=O)c3ccc(Cl)c(Cl)c3)c(N)c2C1c1c(F)cccc1Cl (stereo not drawn) [Compound 40] | 244.87 ± 7.92 | 
CC(=O)C1=C(C)Nc2sc(C(=O)c3ccc(Cl)c(Cl)c3)c(N)c2C1c1cccs1 (stereo not drawn) [Compound 41] | 178.47 ± 7.82 | 
CC(=O)C1=C(C)Nc2sc(C(=O)c3ccc(Cl)c(Cl)c3)c(N)c2C1c1ccc[nH]1 (stereo not drawn) [Compound 42] | 160.56 ± 20.02 | 
CC(=O)C1=C(C)Nc2sc(C(=O)c3ccccc3)c(N)c2C1c1ccc(C(F)(F)F)cc1 (stereo not drawn) [Compound 44] | 186.67 ± 11.55 | 
CC(=O)C1=C(C)Nc2sc(C(=O)c3ccc(Cl)c(Cl)c3)c(N)c2C1c1ccc(C)cc1 (stereo not drawn) [Compound 45] | 108.63 ± 9.14 | 
CC(C)C(=O)C1=C(C(C)C)Nc2sc(C(=O)c3ccc(Cl)c(Cl)c3)c(N)c2C1c1ccccc1 (stereo not drawn) [Compound 46] | 98.33 ± 4.08 | 
CC(=O)C1=C(C)Nc2sc(C(=O)c3ccc(Cl)c(Cl)c3)c(N)c2C1c1ccc(Cl)c(Cl)c1 (stereo not drawn) [Compound 47] | 173.47 ± 25.64 | 
CC(=O)C1=C(C)Nc2sc(C(=O)c3ccc(Cl)c(Cl)c3)c(N)c2C1c1ccc(C(F)(F)F)cc1 (stereo not drawn) [Compound 48] | 190.81 ± 37.09 | 
CCC(=O)C1=C(CC)Nc2sc(C(=O)c3cccc(F)c3)c(N)c2C1c1ccccc1 (stereo not drawn) [Compound 49] | 299.18 ± 42.31 | 
CC(=O)C1=C(C)Nc2sc(C(=O)c3ccc(Cl)c(Cl)c3)c(N)c2C1c1ccc(F)cc1 (stereo not drawn) [Compound 50] | 190.79 ± 27.94 | 
CC(=O)C1=C(C)Nc2sc(C(=O)c3ccc(Cl)c(Cl)c3)c(N)c2C1c1ccc(Cl)cc1Cl (stereo not drawn) [Compound 52] | 122.73 ± 20.55 | 
CCC(=O)C1=C(CC)Nc2sc(C(=O)c3ccc(Cl)c(Cl)c3)c(N)c2C1c1ccccc1Cl (stereo not drawn) [Compound 53] | 259.43 ± 26.30 | 
CCC(=O)C1=C(CC)Nc2sc(C(=O)c3ccc(Cl)c(Cl)c3)c(N)c2C1c1cccc(Cl)c1 (stereo not drawn) [Compound 54] | 267.44 ± 32.29 | 
CC(=O)C1=C(C)Nc2sc(C(=O)c3ccc(Cl)c(Cl)c3)c(N)c2C1c1cc(F)cc(F)c1 (stereo not drawn) [Compound 55] | 229.93 ± 37.33 | 
